Assay results from ChEMBL document CHEMBL5226345, “Lactate dehydrogenase and malate dehydrogenase: Potential antiparasitic targets for drug development studies” (Bioorg Med Chem, 2021).
Values belong to the molecule of their own block, whether it stands above or below them.

Tests used:
[1] = Inhibition of Plasmodium falciparum LDH
[2] = Inhibition of recombinant his tagged Cryptosporidium parvum LDH expressed in Escherichia coli by spectrophotometric based assay
[3] = Inhibition of Toxoplasma gondii LDH2
[4] = Inhibition of Toxoplasma gondii LDH1
[5] = Inhibition of Plasmodium falciparum MDH
[6] = Inhibition of Trichomonas vaginalis LDH
[7] = Inhibition of Plasmodium falciparum LDH by ELISA method
[8] = Inhibition of Schistosoma LDH

IC50 [1]: 0.14 µM
IC50 [2]: 39.5 µM
SMILES: CCCc1c(O)c(O)c(C(=O)O)c2cc(Cc3ccccc3)c(C)cc12
IC50 [3]: 0.9 µM
IC50 [4]: 3.5 µM

IC50 [1]: 1.75 µM
IC50 [5]: 2.66 µM
SMILES: COc1ccc(CNC(=O)C2=CC(=O)c3c(O)cc(OCCc4ccc(NC(=O)C(=O)O)c(C)c4)cc3C2)cc1

IC50 [6]: 100 µM
SMILES: O=C(Nc1ccccc1)c1nnn(-c2ccnc3cc(Cl)ccc23)c1-c1ccccc1

IC50 [2]: 79.6 µM
SMILES: O=C(CSc1ccccc1)Nc1cccc2ccccc12

IC50 [7]: 13.1 µM
SMILES: CC(C)c1c(C(=O)Nc2ccccc2)c(-c2ccccc2)c(-c2ccc(F)cc2)n1CC[C@@H](O)C[C@@H](O)CC(=O)O [ATORVASTATIN]

IC50 [8]: Not Active
SMILES: c1ccc2[nH]cnc2c1 [BENZIMIDAZOLE]

SMILES: Cc1cc2c(C(C)C)c(O)c(O)c(C=O)c2c(O)c1-c1c(C)cc2c(C(C)C)c(O)c(O)c(C=O)c2c1O [GOSSYPOL]
IC50 [2]: 11.8 µM
IC50 [3]: 0.1 µM
IC50 [4]: 0.7 µM

IC50 [7]: 9.3 µM
SMILES: CCC(C)n1ncn(-c2ccc(N3CCN(c4ccc(OCC5COC(Cn6cncn6)(c6ccc(Cl)cc6Cl)O5)cc4)CC3)cc2)c1=O (stereo not drawn) [ITRACONAZOLE]

IC50 [5]: 2.66 µM
SMILES: NC(=O)C(=O)O [OXAMATE]

SMILES: CC[C@@H]([C@H](C)O)n1ncn(-c2ccc(N3CCN(c4ccc(OC[C@@H]5CO[C@@](Cn6cncn6)(c6ccc(F)cc6F)C5)cc4)CC3)cc2)c1=O [POSACONAZOLE]
IC50 [7]: 2.6 µM

IC50 [8]: Not Active
SMILES: O=C(C1CCCCC1)N1CC(=O)N2CCc3ccccc3C2C1 (stereo not drawn) [PRAZIQUANTEL]

IC50 [2]: 46.3 µM
SMILES: O=C1c2ccccc2C(=O)c2c(O)c(O)cc(O)c21 [PURPURIN]
